From ChEMBL document CHEMBL1153047, “Discovery of N-[(1-aryl-1H-indazol-5-yl)methyl]amides derivatives as smoothened antagonists for inhibition of the hedgehog pathway” (Bioorg Med Chem Lett, 2009)

Target: Protein smoothened (Homo sapiens, UniProt Q99835)
Experiment: Inhibition of BODIPY-cyclopamine to Smo in human HEK293 Flag-Smo cells in presence of 2% FCS
Format: cell-based

Sequence of Protein smoothened (Q99835 whole entry): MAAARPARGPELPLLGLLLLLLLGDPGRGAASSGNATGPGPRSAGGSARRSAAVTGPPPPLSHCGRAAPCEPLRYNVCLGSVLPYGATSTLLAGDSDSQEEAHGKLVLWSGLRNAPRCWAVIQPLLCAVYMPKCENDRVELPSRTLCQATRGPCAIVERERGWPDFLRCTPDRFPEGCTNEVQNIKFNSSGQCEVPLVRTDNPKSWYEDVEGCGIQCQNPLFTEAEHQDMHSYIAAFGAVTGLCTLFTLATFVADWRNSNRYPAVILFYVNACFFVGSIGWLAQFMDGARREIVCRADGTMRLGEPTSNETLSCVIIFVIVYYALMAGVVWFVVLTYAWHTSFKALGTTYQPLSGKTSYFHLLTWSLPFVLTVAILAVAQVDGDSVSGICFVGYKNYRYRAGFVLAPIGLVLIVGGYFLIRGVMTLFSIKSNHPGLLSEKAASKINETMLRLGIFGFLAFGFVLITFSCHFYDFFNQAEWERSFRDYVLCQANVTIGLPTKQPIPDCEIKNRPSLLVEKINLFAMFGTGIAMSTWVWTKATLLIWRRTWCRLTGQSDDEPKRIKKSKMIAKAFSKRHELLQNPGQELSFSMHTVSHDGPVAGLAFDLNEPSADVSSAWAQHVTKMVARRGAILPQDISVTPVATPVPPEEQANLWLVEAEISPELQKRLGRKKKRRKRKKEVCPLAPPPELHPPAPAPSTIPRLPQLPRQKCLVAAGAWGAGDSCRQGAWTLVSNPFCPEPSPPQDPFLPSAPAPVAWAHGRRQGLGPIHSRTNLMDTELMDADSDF

Q: O=C(Cc1ccccc1)NCc1ccc2c(cnn2-c2ccc(F)cc2)c1 was tested. Which IC50 did it give?
A: The IC50 was > 10 µM.
